In patent US20200187502A1, “MICROBIOCIDAL OXADIAZOLE DERIVATIVES” (SYNGENTA PARTICIPATIONS AG, priority 2017, published 2020):

Legend:
[1] = system: Puccinia recondita f. Sp. Tritici; experiment: Fungicidal activity, wheat leaf disc preventative (brown rust); format: in vivo; conditions: foliar, 200 ppm in the applied formulation, wheat leaf segments cv. Kanzler, compared to untreated control, 7 to 9 days after application, read-out: disease control
Method: Leaf disks or leaf segments of various plant species are cut from plants grown in a greenhouse. The cut leaf disks or segments are placed in multiwell plates (24-well format) onto water agar. The leaf disks are sprayed with a test solution before (preventative) or after (curative) inoculation. Compounds to be tested are prepared as DMSO solutions (max. 10 mg/ml) which are diluted to the appropriate concentration with 0.025% Tween20 just before spraying. The inoculated leaf disks or segments are incubated under defined conditions (temperature, relative humidity, light, etc.) according to the respective test system. A single evaluation of disease level is carried out 3 to 14 days after inoculation, depending on the pathosystem. Percent disease control relative to the untreated check leaf disks or segments is then calculated.
Wheat leaf segments cv. Kanzler were placed on agar in multiwell plates (24-well format) and sprayed with the formulated test compound diluted in water. The leaf disks were inoculated with a spore suspension of the fungus 1 day after application. The inoculated leaf segments were incubated at 19° C. and 75% relative humidity (rh) under a light regime of 12 hours light/12 hours darkness in a climate cabinet and the activity of a compound was assessed as percent disease control compared to untreated when an appropriate level of disease damage appears in untreated check leaf segments (7 to 9 days after application).
The following compounds at 200 ppm in the applied formulation give at least 80% disease control in this test when compared to untreated control leaf disks under the same conditions, which show extensive disease development.

[2] = system: Glomerella lacenarium (Colletotrichum lacenarium); experiment: Fungicidal activity, liquid culture, cucumber preventative (anthracnose); format: cell-based; conditions: 20 ppm in the applied formulation, liquid culture in PDB, inhibition of growth measured photometrically 3 to 4 days after application, compared to untreated control, read-out: disease control
Method: Mycelia fragments or conidia suspensions of a fungus prepared either freshly from liquid cultures of the fungus or from cryogenic storage, are directly mixed into nutrient broth. DMSO solutions of the test compound (max. 10 mg/ml) are diluted with 0.025% Tween20 by a factor of 50 and 10 μl of this solution is pipetted into a microtiter plate (96-well format). The nutrient broth containing the fungal spores/mycelia fragments is then added to give an end concentration of the tested compound. The test plates are incubated in the dark at 24° C. and 96% relative humidity. The inhibition of fungal growth is determined photometrically after 2 to 7 days, depending on the pathosystem, and percent antifungal activity relative to the untreated check is calculated.
Conidia of the fungus from cryogenic storage are directly mixed into nutrient broth (PDB—potato dextrose broth). After placing a (DMSO) solution of test compound into a microtiter plate (96-well format), the nutrient broth containing the fungal spores is added. The test plates are incubated at 24° C. and the inhibition of growth is measured photometrically 3 to 4 days after application.
The following compounds at 20 ppm in the applied formulation give at least 80% disease control in this test when compared to untreated control under the same conditions, which show extensive disease development.

SMILES | pest or weed control at 200 ppm [1] | inhibition of growth at 20 ppm [2]
O=C(C(=O)N(Cc1ccc(-c2noc(C(F)(F)F)n2)s1)C1CC1)c1ccco1 [Compound 6.60, N-cyclopropyl-2-(2-furyl)-2-oxo-N-[[5-[5-(trifluoromethyl)-1,2,4-oxadiazol-3-yl]-2-thienyl]methyl]acetamide] | ≥ 80% | ≥ 80%
CC(=O)N(Cc1ccc(-c2noc(C(F)(F)F)n2)s1)C1CC1 [Compound 4.61, N-cyclopropyl-N-[[5-[5-(trifluoromethyl)-1,2,4-oxadiazol-3-yl]-2-thienyl]methyl]acetamide] | ≥ 80% | ≥ 80%
O=S(=O)(Cc1ccccc1)N(Cc1ccc(-c2noc(C(F)(F)F)n2)s1)C1CC1 [Compound 6.33, N-cyclopropyl-1-phenyl-N-[[5-[5-(trifluoromethyl)-1,2,4-oxadiazol-3-yl]-2-thienyl]methyl]methanesulfonamide] | ≥ 80% | ≥ 80%
CC(C)CC(=O)C(=O)N(Cc1ccc(-c2noc(C(F)(F)F)n2)s1)C1CC1 [Compound 6.58, N-cyclopropyl-4-methyl-2-oxo-N-[[5-[5-(trifluoromethyl)-1,2,4-oxadiazol-3-yl]-2-thienyl]methyl]pentanamide] | ≥ 80% | ≥ 80%
O=S(=O)(c1ccccc1)N(Cc1ccc(-c2noc(C(F)(F)F)n2)s1)C1CC1 [Compound 6.36, N-cyclopropyl-N-[[5-[5-(trifluoromethyl)-1,2,4-oxadiazol-3-yl]-2-thienyl]methyl]benzenesulfonamide] | ≥ 80% | –
CC(C)N(Cc1ccc(-c2noc(C(F)(F)F)n2)s1)C(=O)c1ccccc1Cl [Compound 5.26, 2-chloro-N-isopropyl-N-[[5-[5-(trifluoromethyl)-1,2,4-oxadiazol-3-yl]-2-thienyl]methyl]benzamide] | ≥ 80% | ≥ 80%
O=C(C(=O)N(Cc1ccc(-c2noc(C(F)(F)F)n2)s1)OCC(F)F)c1ccccc1 [Compound 6.61, N-(2,2-difluoroethoxy)-2-oxo-2-phenyl-N-[[5-[5-(trifluoromethyl)-1,2,4-oxadiazol-3-yl]-2-thienyl]methyl]acetamide] | ≥ 80% | ≥ 80%
CCN(Cc1ccc(-c2noc(C(F)(F)F)n2)s1)S(=O)(=O)C1CC1 [Compound 6.19, N-ethyl-N-[[5-[5-(trifluoromethyl)-1,2,4-oxadiazol-3-yl]-2-thienyl]methyl]cyclopropanesulfonamide] | ≥ 80% | ≥ 80%
CN(C)S(=O)(=O)N(Cc1ccc(-c2noc(C(F)(F)F)n2)s1)C1CC1 [Compound 6.2, N-(dimethylsulfamoyl)-N-[[5-[5-(trifluoromethyl)-1,2,4-oxadiazol-3-yl]-2-thienyl]methyl]cyclopropanamine] | ≥ 80% | ≥ 80%
COCCS(=O)(=O)N(Cc1ccc(-c2noc(C(F)(F)F)n2)s1)C1CC1 [Compound 6.32, N-cyclopropyl-2-methoxy-N-[[5-[5-(trifluoromethyl)-1,2,4-oxadiazol-3-yl]-2-thienyl]methyl]ethanesulfonamide] | ≥ 80% | ≥ 80%
O=C(CC(F)(F)F)N(Cc1ccc(-c2noc(C(F)(F)F)n2)s1)C1CC1 [Compound 4.60, N-cyclopropyl-3,3,3-trifluoro-N-[[5-[5-(trifluoromethyl)-1,2,4-oxadiazol-3-yl]-2-thienyl]methyl]propanamide] | ≥ 80% | ≥ 80%
O=C(C1CCC1)N(Cc1ccc(-c2noc(C(F)(F)F)n2)s1)OCC(F)F [Compound 5.47, N-(2,2-difluoroethoxy)-N-[[5-[5-(trifluoromethyl)-1,2,4-oxadiazol-3-yl]-2-thienyl]methyl]cyclobutanecarboxamide] | ≥ 80% | ≥ 80%
CCCS(=O)(=O)N(C)Cc1ccc(-c2noc(C(F)(F)F)n2)s1 [Compound 6.31, N-methyl-N-[[5-[5-(trifluoromethyl)-1,2,4-oxadiazol-3-yl]-2-thienyl]methyl]propane-1-sulfonamide] | ≥ 80% | ≥ 80%
CCS(=O)(=O)N(Cc1ccc(-c2noc(C(F)(F)F)n2)s1)C1CC1 [Compound 6.35, N-cyclopropyl-N-[[5-[5-(trifluoromethyl)-1,2,4-oxadiazol-3-yl]-2-thienyl]methyl]ethanesulfonamide] | ≥ 80% | ≥ 80%
COC(=O)N(Cc1ccc(-c2noc(C(F)(F)F)n2)s1)OC [Compound 1.5, methyl N-methoxy-N-[[5-[5-(trifluoromethyl)-1,2,4-oxadiazol-3-yl]-2-thienyl]methyl]carbamate] | ≥ 80% | ≥ 80%
CN(Cc1ccc(-c2noc(C(F)(F)F)n2)s1)C(=O)C(=O)Cc1ccccc1 [Compound 6.50, N-methyl-2-oxo-3-phenyl-N-[[5-[5-(trifluoromethyl)-1,2,4-oxadiazol-3-yl]-2-thienyl]methyl]propanamide] | ≥ 80% | ≥ 80%
CCS(=O)(=O)N(C)Cc1ccc(-c2noc(C(F)(F)F)n2)s1 [Compound 6.25, N-methyl-N-[[5-[5-(trifluoromethyl)-1,2,4-oxadiazol-3-yl]-2-thienyl]methyl]ethanesulfonamide] | ≥ 80% | ≥ 80%
O=C(C1CCC1)N(Cc1ccc(-c2noc(C(F)(F)F)n2)s1)C1CC1 [Compound 5.38, N-cyclopropyl-N-[[5-[5-(trifluoromethyl)-1,2,4-oxadiazol-3-yl]-2-thienyl]methyl]cyclobutanecarboxamide] | ≥ 80% | ≥ 80%
O=C(CC1CC1)N(Cc1ccc(-c2noc(C(F)(F)F)n2)s1)OCC(F)F [Compound 5.45, 2-cyclopropyl-N-(2,2-difluoroethoxy)-N-[[5-[5-(trifluoromethyl)-1,2,4-oxadiazol-3-yl]-2-thienyl]methyl]acetamide] | ≥ 80% | ≥ 80%
CON(Cc1ccc(-c2noc(C(F)(F)F)n2)s1)S(=O)(=O)c1ccn(C)n1 [Compound 1.33, N-methoxy-1-methyl-N-[[5-[5-(trifluoromethyl)-1,2,4-oxadiazol-3-yl]-2-thienyl]methyl]pyrazole-3-sulfonamide] | ≥ 80% | ≥ 80%
CON(Cc1ccc(-c2noc(C(F)(F)F)n2)s1)S(=O)(=O)N(C)C [Compound 1.43, N-(dimethylsulfamoyl)-N-methoxy-1-[5-[5-(trifluoromethyl)-1,2,4-oxadiazol-3-yl]-2-thienyl]methanamine] | ≥ 80% | ≥ 80%
CCCCS(=O)(=O)N(C)Cc1ccc(-c2noc(C(F)(F)F)n2)s1 [Compound 6.24, N-methyl-N-[[5-[5-(trifluoromethyl)-1,2,4-oxadiazol-3-yl]-2-thienyl]methyl]butane-1-sulfonamide] | ≥ 80% | –
CN(Cc1ccc(-c2noc(C(F)(F)F)n2)s1)S(=O)(=O)c1ccccc1 [Compound 6.26, N-methyl-N-[[5-[5-(trifluoromethyl)-1,2,4-oxadiazol-3-yl]-2-thienyl]methyl]benzenesulfonamide] | ≥ 80% | –
